The values below come from patent US20050267020A1, “Polypeptides derived from inducible hsp70 and pharmaceutical compositions containing the same” (priority 2001, published 2005).

Assay [1] has as its system MCF-7 and SAOS tumor cell lines. Nature of the assay: Recognition by murine CTL of epitopes at the surface of human tumor cells, TNF-α secretion assay. The note with it: HLA-A*0201+ Hsp70+ tumor cells. It is filed as cell-based. From the text:
CTL recognition of tumoral cells is expressed as CTL secretion of TNF-α dosed in supernatant (X Axis, TNF-α ranges from 0 to 1000 pg/ml) after contact with the cells. Upper to lower bars represent the different cells and reagents in contact with CTL, respectively: 2 negative controls (M113, M44), SAOS, MCF-7, MCF-7 blocked with anti-class I (w6/32) antibody before mixed culture, and MCF-7 blocked with an irrelevant antibody before mixed culture.
TNF-α Secretion Assay. Transfected COS cells on day 4 or 10^5 target tumor cells were plated in 50 μL RPMI 10% FCS and when necessary incubated with 10 μM peptide for 1 hour. In blocking experiments, anti-HLA class I antibody w6/32 or an irrelevant antibody were incubated with target cells for 1 h30. 5×10^4 T cells were then added in 50 μL RPMI 10% FCS and incubated for 6 hours. Each condition was tested in quadruplicates. 50 μL of the supernatant was collected. Standard dilutions were prepared in 50 μL with final doses of TNF-α (kindly provided by I. Apfler, Bender Wien, Austria) ranging from 10^4 to 0.08 pg/mL. On both the supernatants and the standards were added 50 μL of 3×10^4 TNF-α sensitive WEHI-164c13 cells. They were incubated for 16 hours at 37° C. (23). Inhibition of cell proliferation was evaluated by the MTT colorimetric method. Briefly, 50 μL of MTT at 2.5 mg/mL (Sigma-Aldrich) was added and incubated for 4 hours at 37° C. Cells were then lyzed with 100 μL of a pH4.7 33% N,N-dimethyl formamide (Sigma-Aldrich) 20% SDS solution in water. Two hours after cells lysis, OD was measured at 550 nm on a Dynatech MR5000 spectrophotometer. TNF-α quantitation was calculated by linear interpolation with the standard dilutions.
We studied whether the over-expression of Hsp70 described in certain tumor cell lines was high enough to enable these epitopes to be presented at the surface of tumor cells. We addressed this question with our already available high-avidity murine CTLs, hypothesizing that such a high CTL avidity enables the recognition of the highest-Hsp70 expressing human tumor cells. […]

In assay [2] the target is T1, HLA-A*0201 (Homo sapiens, UniProt P04439, D140Y/D185E/D98H/E176V/E277Q/G131W/G231S/I119V/I121R/I166T/I218V/L300P/L318F/N151K/N90K/P208A/P217A/Q86G/Q94H/R138H/R169H/T345S).
T1 construct: Tap−/− cells expressing the studied HLA-class I molecule; endogenous in cells; host or cells: T2 cells (Tap-/-, HLA-A*0201)
Description: Measurement of peptide relative affinity to HLA-A*0201 on T2 cells. It is filed as binding. The note with it: Relative Affinity determination. Here is the method:
Measurement of Peptide Relative Affinity to HLA class I. Tap−/− cells expressing the studied HLA-class I molecule (3×10^5 cells/mL) were incubated with various concentrations of peptides ranging from 100 μM to 0.1 μM in serum-free RPMI 1640 medium supplemented with 100 ng/ml of human β-2m at 37° C. for 16 hours. Cells were then washed twice and stained with the specific anti-class I mAb followed by FITC conjugated goat anti mouse Ig mAb to quantify the expression of HLA-A*0201. For each peptide concentration, the HLA-specific staining was calculated as the % of the staining obtained with 100 μM of the reference peptide. The relative affinity (RA) is determined as: RA=(Concentration of each peptide that induces 20% of HLA expression/Concentration of the reference peptide that induces 20% of HLA expression). The lower the RA-value, the stronger is the peptide binding to HLA. The mean RA value for each peptide is determined from at least three independent experiments. […]
The affinity of each peptide was assayed experimentally by determination of the Relative Affinity: the necessary peptide dose to stabilise a reference quantity of HLA-A*0201 molecules at the surface of T2 cells; and the stability of each peptide was assayed by determination of the half-life of the peptide/HLA-A*0201 molecule complex (DC50: dissociation complex 50).

With LLLLDVAPL [HSP 391], the “presentation of the epitope at the surface of Hsp70 over-expressing human tumor cells” value in assay [1] was “demonstrated”.

For the sequence LMGDKSENV [HSP 380], the “presentation of the epitope at the surface of Hsp70 over-expressing human tumor cells” value in assay [1] was “demonstrated”.

For YLGYPVTNAV [HSP 134(10)], in assay [2], the “affinity for HLA-A*0201 (in words)” value is recorded as “strong affinity”.
